Source: article PMC8047729, “Identification of a nanomolar affinity α-synuclein fibril imaging probe by ultra-high throughput in silico screening” (Chemical Science, 2020)
Entries after “also recorded” stand apart in the source; their conditions may differ.

Key:
[1] = target: T1, αS fibrils, Site 2 ([^3H]Tg-190b) (Homo sapiens, UniProt P37840); experiment: Competition binding assay with Site 2 radioligand [^3H]Tg-190b on αS fibrils; conditions: αS fibrils 100 nM, [^3H]Tg-190b 6 nM, 1 h 37 °C; 95% confidence intervals in parentheses in Table 1 (n = 3)
Protocol: (§1) Fig. S10 Screening of SAR Library Derived from Compound 6. Site 2 radioligand competition binding assays with [3H]Tg-190b. ANOVA was performed with Dunnett’s multiple comparisons test, where […]
(§2) *P<0.0332, **P<0.0021, ***P<0.0002 and ****P<0.0001.
(§3) Competition binding assay. αS fibrils (100 nM for Site 2 and 50 nM for Site 9) were mixed with Site 2 ligand [3H]Tg-190b (6 nM) or Site 9 ligand [3H]BF2846 (3 nM) and varying concentrations of unlabeled compounds 2, 6, 24, 28, 31, 39, 40, or 52. Compounds were diluted in 50 mM Tris-HCl buffer (pH 7.4) and mixed with fibrils and radioligand in a total volume of 150 µL. Total binding was measured in the absence of competitor and nonspecific binding was determined in reactions containing unlabeled Tg-190b (1 µM) or BF2846 (0.5 µM). In a duplicate set of binding […]
(§4) binding to the filter paper. Reactions were incubated at 37 °C for 1 h. After incubation, bound […]
(§5) Filters containing the bound ligand were mixed with 3 mL of scintillation cocktail (MicroScint-20, PerkinElmer) and counted after 12 h of incubation on a MicroBeta System (PerkinElmer). All data points were acquired in triplicate.
(§6) (1 picture or pasted object on this page, not shown here)
(§7) The measured cpm values were converted to % specific binding as described by the equation […]
(§8) % specific binding = !"#$"#% "# ’() *+),)#-) ./ -.0*)’"’.+1#.#,*)-"/"- !"#$"#% ∗ 100 ’.’23 !"#$"#%1#.#,*)-"/"- !"#$"#%
(§9) IC50 values were calculated by fitting the data to Equation S1 below by non-linear regression, using GraphPad Prism software:
(§10) Y = Bottom + (Top-Bottom) / (1+ 10(813.%9:;<)) (S1) where logIC50 is the log of the concentration of competitor that results in binding half-way between Bottom and Top; Top and Bottom are plateaus in the units of Y axis; they are binding observed in the absence of competitor and in the presence of a maximal concentration of competitor, respectively. Binding curves for compounds 2 and 6 are shown in Fig. 2 in the main text and for compounds 6, 24, 28, 31, 39, 40, and 52 in Figs. S11 and S12.

[2] = target: αS fibrils, Site 9 ([^3H]BF2846) (Homo sapiens, UniProt P37840); experiment: Competition binding assay with Site 9 radioligand [^3H]BF2846 on αS fibrils; conditions: αS fibrils 50 nM, [^3H]BF2846 3 nM, 1 h 37 °C; 95% confidence intervals in parentheses (n = 3)
Protocol: as §1, §2, §3, §4, §5, §6, §7, §8, §9, §10

[3] = target: T2, αS fibrils (Homo sapiens, UniProt P37840); experiment: αS fibril disaggregation (stability) fluorescence polarization experiment; assay type: biochemical; conditions: 10 μM labeled fibrils; compound 6 at 10 and 100 μM, EGCG and NDGA at 100 μM
Protocol: (§11) Fluorescence Polarization and Photo -Crosslinking Assays
(§12) Aggregation and disaggregation fluorescence polarization experiments. Wild-type and αS with a fluorescein maleimide attached via Cys114 mutation were produced as previously described.10 Aggregations were performed at a total monomer concentration of 100 μM with 1% labeled αS in 20 mM Tris, 100 NaCl pH 7.4 in the presence of 10 and 100 μM compound 6 and with equivalent volume of DMSO as a control. At each timepoint, an aliquot of the fibrilization reaction was removed and diluted 10-fold in buffer. Fluorescence polarization (FP) was measured in a Greiner black 96 half-area well microplate (Greiner Bio-One North America Inc.; Monroe, NC, USA) at a total volume of 50 μL on a Tecan F200 plate reader (San Jose, CA, USA).
Aggregations were performed in triplicate.
Disaggregation experiments were performed on labeled fibril samples prepared as described above in the absence of compound. A final concentration of 10 μM fibrils was added to each well for each disaggregation experiment and compound 6, nordihydroguaiaretic acid (NDGA), epigallocatechin gallate (EGCG) or DMSO (1%) was added just prior to measurement to the final concentrations detailed in Fig. S3 and total volumes of 50 μL. Samples were shaken at 149 rpm at room temperature with FP measurements taken every 150 s. EGCG and NDGA […]
Fig. S5 Impact of Compound 6 on αS Fibril Stability. Assessment of potential remodeling of 1% labeled αS fibrils by (light-green) 10 and (dark-green) 100 μM compound 6 compared to (red) 100 μM EGCG and (blue) 100 μM NDGA as a positive control. DMSO administration volume-matched to that used for (grey) 10 and (black) 100 μM compound administration was used as a negative control. […]

[4] = target: αS aggregation (Homo sapiens, UniProt P37840); experiment: αS aggregation fluorescence polarization experiment; assay type: biochemical; conditions: 10 and 100 μM compound, 100 μM αS monomer with 1% labeled αS
Protocol: as §11, §12
Aggregations were performed in triplicate. […]
Fig. S4 Impact of Compound 6 on αS Aggregation. Aggregation of αS in the presence of 1% labeled monomer along with (light-green) 10 and (dark-green) 100 μM compound 6 monitored by (a) fluorescence polarization (FP) and (b) Congo Red absorbance. Aggregation in the presence of compound was compared to aggregation in the presence of volume matched addition of DMSO for (grey) 10 and (black) 100 μM […]
10 and (black) 100 μM compound administration was used as a negative control. […]

[5] = target: T1, αS fibrils, Site 2 ([^3H]Tg-190b); experiment: Single-concentration radioligand competition screen (100 nM compound) against [^3H]Tg-190b; assay type: binding; conditions: 100 nM αS fibrils, [^3H]Tg-190b 6 nM
Protocol: Compounds 1–17 were purchased from vendors that were listed on the ZINC15 compound library. […] Total binding was measured in the absence of competitor and nonspecific binding was determined in reactions containing unlabeled Tg-190b (1 μM) or BF2846 (0.5 μM). […] Filters containing the bound ligand were mixed with 3 mL of scintillation cocktail (MicroScint-20, PerkinElmer, Inc.) and counted after 12 h of incubation on a MicroBeta System (PerkinElmer, Inc.). All data points were measured in triplicate. Screening of compounds 18–56 for the SAR study was performed in a similar fashion.
In Vitro Radioligand Binding Assays
Screening compound library. Compounds 1-17 (Fig. S8) were purchased from vendors that were listed on the ZINC15 compound library. 3 Compounds were screened for αS binding and after identifying the lead compound, 6, the core structure of compound 6 and its pyrazole or oxadiazole derivatives were used for similarity search on the Mcule, Inc. website.12 The similarity threshold was set to higher than 0.8, then compound 18-56 (Fig. S9) were chosen and ordered from the four companies mentioned above.
In order to screen the purchased compounds for αS binding, 100 nM solutions of each compound (1-56) were incubated for 1 hour at 37 °C with 100 nM αS fibrils and [3H]Tg-190b (6 nM) or [3H]BF2846 (3 nM) in 50 mM Tris-HCl, pH 7.4. Total binding was measured in the absence of competitor and nonspecific binding was determined in reactions containing unlabeled Tg-190b (1 µM) or BF2846 (0.5 µM). After incubation, bound and free radioligand were […]
scintillation cocktail (MicroScint-20, PerkinElmer; Waltham, MA, USA) and counted after 12 h of incubation on a MicroBeta System (PerkinElmer). All data points were acquired in triplicate.
Percentage of bound radioligand relative to total binding was plotted and data was analyzed by One-Way ANOVA, comparing the mean of each data set to the mean of total binding. […]
are shown in Fig. 2 in the main text, and Fig. S8 and S10.

[6] = target: T2, αS fibrils

IC50 [1] [nM]	IC50 [2] [nM]	Binding in Site 2 radioligand competition screen (in words) [5]	SMILES	also measured
9.49	109	high affinity	Cc1ccc(OCC(=O)Nc2cc(-c3ccc(F)cc3)no2)cc1C [Compound 6]	Effect on stability of αS fibrils [3]: no apparent effect; also recorded: did not show any significant effect; Effect on rate of αS aggregation [4]: No significant effect; also recorded: did not show any significant effect
		bind poorly	CC(Oc1ccc(F)cc1)C(=O)Nc1cc(-c2ccccc2)no1 (stereo not drawn) [Compound 23]	
95.1	557	moderate to strong binding	COc1ccc(OCC(=O)Nc2cc(-c3ccccc3)no2)cc1 [Compound 24]	
		weak binders	O=C(COc1ccc(F)cc1)Nc1cc(-c2ccccc2)no1 [Compound 25]	
		hinder binding	COc1ccccc1OCC(=O)Nc1cc(-c2ccccc2)no1 [Compound 27]	
		moderate to strong binding	COc1ccc(OCC(=O)Nc2cc(-c3ccc(F)cc3)no2)cc1 [Compound 34]	
30.7	> 1000	moderate to strong binding	Cc1ccc(OCC(=O)Nc2cc(-c3ccccc3)no2)cc1C [Compound 52]	
		moderate affinity	O=C(COc1ccc(F)cc1)Nc1cc(-c2ccccc2)n[nH]1 [Compound 55]	

More lines, now with the values behind:

SMILES	IC50 [1] [nM]	IC50 [2] [nM]	Binding in Site 2 radioligand competition screen (in words) [5]	also measured
Cc1ccc(N2CCN(c3cnn(-c4ccccc4)c(=O)c3Cl)CC2)cc1C [Compound 2]	490			
COc1ccc(OCC(=O)Nc2cc(-c3ccc(C)cc3)no2)cc1 [Compound 19]			moderate to strong binding	
Cc1ccc(OCC(=O)Nc2cc(-c3ccc(Br)cc3)no2)cc1C [Compound 28]		12.6	moderate to strong binding	
COc1ccc(OCC(=O)Nc2cc(-c3ccc(Br)cc3)no2)cc1 [Compound 31]	68.7	37	moderate to strong binding	
COc1ccc(OCC(=O)Nc2cc(-c3ccc(F)c(F)c3)no2)cc1 [Compound 39]	95.7	> 1000	moderate to strong binding	
Cc1ccc(OCC(=O)Nc2cc(-c3ccc(F)c(F)c3)no2)cc1C [Compound 40]	19.6	> 1000	moderate to strong binding	
COc1ccc(OCC(=O)Nc2noc(-c3ccccc3)n2)cc1 [Compound 48]			bound more poorly than the corresponding isoxazole compound	
O=C(COc1ccc(F)cc1)Nc1noc(-c2ccccc2)n1 [Compound 50]			bound more poorly than the corresponding isoxazole compound; also recorded: weak binders	
O=C(COc1ccccc1)Nc1noc(-c2ccccc2)n1 [Compound 51]			bound more poorly than the corresponding isoxazole compound	
Cc1ccc(OCC(=O)Nc2cc(-c3ccc(I)cc3)no2)cc1C [Compound 61]				Kd [6]: 1 nM; Selectivity for αS fibrils over amyloid β (Aβ42 fibrils) ([6]; from saturation binding Kd values): ~5 fold
O=C(O[C@@H]1Cc2c(O)cc(O)cc2O[C@@H]1c1cc(O)c(O)c(O)c1)c1cc(O)c(O)c(O)c1 [EGCG, epigallocatechin gallate, reference compound]				Effect on stability of αS fibrils [3]: disrupted fibril stability
CC(Cc1ccc(O)c(O)c1)C(C)Cc1ccc(O)c(O)c1 (stereo not drawn) [NDGA, nordihydroguaiaretic acid, reference compound]				Effect on stability of αS fibrils [3]: disrupted fibril stability
